Test results published in patent US20090234122A1, “CYANINE DYE AND OPTICAL RECORDING MEDIUM” (priority 2005, published 2009).

Tests used:
Assay type in all cases: physicochemical
[1] = Lightfastness of cyanine dye thin membranes under xenon lamp irradiation; conditions: thin membrane on glass, 180 W/m^2, 5.5 hours
Description: The solution was in conventional manner dropped to homogeneity over the surface of either side of a polished glass substrate, 5 cm×5 cm, followed by rotating the glass substrate at a rate of 1,000 rpm/min for one minute to homogeneously apply the solution over the substrate and then drying the substrate by blowing hot air or cold air in this order to form a thin membrane of any one of the cyanine dyes of the present invention.
The cyanine dyes were measured for transmittance (T0) at the wavelengths of their absorption maxima (about 450 nm), while a 7.5 W xenon lamp was fixed apart from the glass substrate at a prescribed intervals and irradiated therewith (irradiated energy of 180 W/m^2 when measured on the surface of the substrate) for 5.5 hours while blowing cold air to the substrate. Thereafter, the substrates were immediately measured for transmittance (T) at the wavelengths of absorption maxima of the cyanine dyes and the residual percentages (%) thereof were calculated by assigning the obtained transmittances T and T0 the equation 1. In parallel, similarly as in the above, thin membranes, as controls 1 to 4, formed with any one of the compounds represented by Chemical Formulae 33, 37, 40 and 41; thin membranes, as controls 5 to 8, formed with any one of the compounds represented by Chemical Formulae 33, 37, 40 and 41 in combination with the azo metal complex presented by Chemical Formula 34 as a light resistant improver; and thin membranes, as controls 9 to 10, formed with any one of the compounds represented by Chemical Formulae 42 and 43, and these thin membranes were similarly treated as in the above, and measured for transmittances T and T0 at wavelengths of their absorption maxima for use as controls.

[2] = Decomposition point on DSC analysis; conditions: onset temperature of exothermic peak induced by decomposition
Text: The decomposition points of organic dye compounds such as cyanine dyes can be determined on, for example, commonly used differential scanning calorimetric analysis (abbreviated as “DSC”, hereinafter).
The melting point means a peak top temperature of endothermic peak during temperature increase on DSC analysis, while the decomposition point means an onset temperature of exothermic peak induced by decomposition during temperature increase on DSC analysis. These are applicable to the following measurements.

[3] = Solubility in organic solvents at 20° C.; conditions: N,N-dimethylformamide, methanol, TFP, methylethylketone, acetonitrile, chloroform
[4] = transmittance at absorption maximum (about 450 nm), lightfastness improver: Non
[5] = in combination with lightfastness improver Chemical Formula 34 (azo metal complex)

SMILES	Residual percentage (%) of dye [1, 4]	decomposition point [2]	solubility in organic solvents [3]	Residual percentage (%) of dye [1, 5]
CN1C(=CC2=[N+](C)c3ccccc3C2(C)Cc2ccccc2)C(C)(C)c2ccccc21 (stereo not shown) [Chemical Formula 20]	99.1%	~273 °C	satisfactory solubilities with no actual hindrance	
CCN1C(=CC2=[N+](CC)c3ccccc3C2(C)Cc2ccccc2)C(C)(Cc2ccccc2)c2ccccc21 (stereo not shown) [Chemical Formula 33]	29.4%	around 212 °C		89.9%
CN1C(=CC2=[N+](C)c3ccccc3C2(C)Cc2ccccc2)C(C)(C)c2ccccc21 (stereo not shown) [Chemical Formula 37]	31.2%	around 238 °C		90.3%
CN1C(=CC2=[N+](C)c3ccccc3C23CCCCC3)C2(CCCCC2)c2ccccc21 [Chemical Formula 40]	35.6%	around 227 °C		91.5%
CN1C(=CC2=[N+](C)c3ccccc3C23CCCCC3)C(C)(C)c2ccccc21 [Chemical Formula 41]	33.8%	around 240 °C		93.8%
CN1C(=CC2=[N+](C)c3ccccc3C2(C)C)C(C)(C)c2ccccc21 [Chemical Formula 42]	15.3%			
